Reference: patent US7902185B2, “Treatment of neurodegenerative diseases using proteasome modulators” (ALS Therapy Development Foundation, Inc., priority 2002, dated 2011)
Where two headings read alike, the source gives them in different places.

Columns and labels:
[1] = test system: SOD1 G93A mouse model of ALS; assay: Neurological score in SOD1 G93A mouse model of ALS; format: in vivo; settings: for Neurological score significance (Males & Females combined): p value, mixed piece wise linear analysis
Description: Neurological Scoring: From day 85 onward, neurological score was recorded on a 4-point scale: • 0=Normal reflex on the hind limbs (animal will splay its hind limbs when lifted by its tail) • 1=Abnormal reflex (Lack of splaying of hind limbs when animal is lifted by the tail). • 2=Abnormal reflex and visible evidence of paralysis • 3=Lack of reflex and total paralysis of hind limbs. • 4=Inability to right themselves when placed on the sides in 30 seconds or found dead. The animals are sacrificed at this stage if alive.

[2] = Maximal tolerated dose in the mouse studies; format: in vivo; settings: dose of these studies is quite close to it
Description: The dose of Ritonavi® in these studies (50 mg/Kg) is quite close to its maximal tolerated dose.

[3] = test system: ALS patient; assay: Ritonavir treatment of an ALS patient; format: in vivo, human; settings: one patient
Text: The patient was on ventilator and non-ambulatory. The patient was paralyzed below the waist except the neck region, and communicated with head movement using Morse code based computer keys. […] The biceps and forearms of the patient were paralyzed for several years.
After administering Ritonavir® for nine months, the patient underwent neurological examination.

[4] = test system: proteasomal chymotrypsin activity; settings: at 5 uM concentration; cited from earlier work
[5] = test system: experimental autoimmune encephalomyelitis (EAE); settings: previous animal efficacy studies, cited from earlier work
[6] = test system: IκB degradation and NF-κB mediated signal transduction; settings: at high doses (approximately 100 μM); cited from earlier work
[7] = molecular target: T1, caspase 3 (Homo sapiens, UniProt P42574); settings: cited from earlier work
T1 sequence (P42574 29-277): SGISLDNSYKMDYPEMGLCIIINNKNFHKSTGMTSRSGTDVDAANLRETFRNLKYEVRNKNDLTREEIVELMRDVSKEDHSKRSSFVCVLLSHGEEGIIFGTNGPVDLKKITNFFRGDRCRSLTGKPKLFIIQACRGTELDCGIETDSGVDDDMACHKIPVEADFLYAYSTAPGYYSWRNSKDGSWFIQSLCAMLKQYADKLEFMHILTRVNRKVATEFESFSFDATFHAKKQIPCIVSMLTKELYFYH

[8] = test system: cell proliferation; settings: by arresting cells in the GI phase the cell cycle; cited from earlier work
[9] = molecular target: LMP7 component of the immunoproteosome (Homo sapiens, UniProt P28062); settings: cited from earlier work
[10] = test system: antigen processing and MHC I expression; settings: cited from earlier work
[11] = in vivo; cited from earlier work
[12] = test system: AIDS patients; settings: human, in vivo; cited from earlier work
[13] = test system: SOD1 G93A mouse model of ALS; assay: Survival in SOD1 G93A mouse model of ALS; settings: for Female (% effect on survival) / Female (Days) survival: females; for Combined (% effect on survival) / Combined (Days) survival: males+females; for Combined (Days) survival / Female (Days) survival / Male (Days) survival: mean; for Female (Days) survival / Male (Days) survival: treated; for Male (Days) survival / Male (% effect on survival): males;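 as to all read-outs here: heterozygous transgenic SOD1 G93A mice dosed from 60 days of age until death, checked daily for death, compared with vehicle-treated controls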
Description: Model Description: The SOD1 G93A (high copy) mouse model is a mouse that carries 25 copies of the human G93A SOD mutation and is driven by the endogenous promoter.
Murine ALS model: Heterozygous transgenic mice carrying the human SOD-1 (G93A) gene were obtained from Jackson Laboratory (Bar Harbor, Me., USA) and experiments were performed under IRB protocol at Massachusetts College of Pharmacy.
Control Drug and Pharmacological Agent Preparation and Delivery: The drugs were formulated in suitable vehicles and control groups were given the same vehicle as treatment. […] Mice were treated from 60 days of age until death and were monitored daily for weight, neurological score and death.
Statistical Analysis: Statistical analysis on the neurological score, body weight and survival was done by utilizing ANOVA, Kaplan Meier, t-test, Cox's proportional hazards regression model and mixed linear model methods. All statistical analysis was performed using standard procedures known in the art.

[14] = test system: patients with ALS; settings: Borras-Blasco et al. (1998); cited from earlier work
[15] = test system: proteasome; settings: at very high concentrations; cited from earlier work
[16] = after nine months of administration
[17] = Combined Ritonavir studies (100% Litter matched), vs control
[18] = Combined Ritonavir studies (100% Litter matched)
[19] = study Ritonavir-1, 50 mg/Kg/day IP
[20] = study Ritonavir-2, 50 mg/Kg/day IP
[21] = study Ritonavir-3, 50 mg/Kg/day IP

## CC(C)c1nc(CN(C)C(=O)N[C@H](C(=O)N[C@@H](Cc2ccccc2)C[C@H](O)[C@H](Cc2ccccc2)NC(=O)OCc2cncs2)C(C)C)cs1 (relative stereo) [Ritonavir, 10-Hydroxy-2-methyl-5-(1-methylethyl)-4-thiazolyl]-3,6-dioxo-8,11-bis (phenylmethyl)-2,4,7,12-tetraazatridecan-13-oic acid, 5-thiazolylmethyl ester, [5S-(5R*,8R*,10R*,11R*)]]
[1]; study Ritonavir-1
  Neurological score significance (Males & Females combined): p < 0.0001
[1]; study Ritonavir-2
  Neurological score significance (Males & Females combined): p < 0.0001
[1]; study Ritonavir-3
  Neurological score significance (Males & Females combined): p = 0.0007
[1]; three separate studies
  disease progression (neurological score), overall conclusion: reproducible slowing
[2]
  maximal tolerated dose: ~50 mg/kg
[3]; 400 mg/day for about nine months
  therapeutic effects in an ALS patient: ameliorating the effects of ALS, slowing progression of the disease, and improving survival
[3]; 400 mg/day
  time until beneficial therapeutic effects were experienced: after three weeks
[3]; [16]
  diaphragm strength (neurological examination): gained enough strength to dislodge a tracheostomy cuff when sneezing
  pectoral muscle strength: gained significant strength
  swallowing (neurological examination): able to swallow
[3]; after treatment
  muscles that had been paralyzed for years: again under conscious control and showed electrical nerve activity
[4]
  inhibition of proteasomal chymotrypsin activity: inhibition
[5]
  effect in the EAE model: protective
[5]; listed as pharmacological agent
  effect in the EAE model: prevented the development
[6]
  inhibition of IκB degradation and NF-κB mediated signal transduction: inhibit
[7]
  activity of caspase 3: inhibit
[8]
  cell proliferation: suppress
[9]
  binding to the LMP7 component of the immunoproteosome: binds
[10]
  antigen processing and MHC I expression: decreased
[11]
  plasma levels, female animals compared to males: higher plasma levels
[12]
  toleration in AIDS patients: good toleration
[13]; [17]
  Female (% effect on survival): −1%
  Combined (% effect on survival): 2%
[13]; Combined Ritonavir studies (100% Litter matched), treated N=48
  Combined (Days) survival: 141 days
[13]; [18]
  Female (Days) survival: 138 days
  Male (Days) survival: 144 days
[13]; study Ritonavir-1, vs control
  Female (% effect on survival): None
  Male (% effect on survival): 10%
[13]; study Ritonavir-1, (mean treated-mean control)/mean control*100
  Combined (% effect on survival): 5%
[13]; study Ritonavir-1, treated N=20, 50 mg/Kg/day IP
  Combined (Days) survival: 145 days
[13]; [19]
  Female (Days) survival: 141 days
  Male (Days) survival: 149 days
[13]; study Ritonavir-2, vs control
  Female (% effect on survival): 6%
  Combined (% effect on survival): 7%
  Male (% effect on survival): 8%
[13]; study Ritonavir-2, treated N=18, 50 mg/Kg/day IP
  Combined (Days) survival: 149 days
[13]; [20]
  Female (Days) survival: 144 days
  Male (Days) survival: 153 days
[13]; study Ritonavir-3, vs control
  Female (% effect on survival): −5%
  Combined (% effect on survival): 2%
  Male (% effect on survival): 7%
[13]; study Ritonavir-3, treated N=18, 50 mg/Kg/day IP
  Combined (Days) survival: 137 days
[13]; [21]
  Female (Days) survival: 134 days
  Male (Days) survival: 139 days
[13]; three separate studies
  survival, overall conclusion: prolongation
[13]; three studies, based on neurological score and survival data
  activity compared with positive control riluzole: more active

## Nc1nc2ccc(OC(F)(F)F)cc2s1 [Riluzole]
[14]
  muscular strength of ALS patients: does not appear to provide an improvement

## CC(C)(C)NC(=O)[C@@H]1C[C@@H]2CCCC[C@@H]2CN1C[C@@H](O)[C@H](Cc1ccccc1)NC(=O)[C@H](CC(N)=O)NC(=O)c1ccc2ccccc2n1 [saquinavir]
[15]
  alteration of proteasome activity: alters proteasome activity
